The values below come from patent US20170144969A1, “ANT[…], METHOD FOR PRODUCTION AND USES THEREOF” (priority 2014, published 2017).

One data set deals with S. aureus (MTCC 737). In words: Minimum Inhibitory Concentration, micro-dilution broth. It is filed as cell-based, Staphylococcus aureus. The conditions noted are these: 37° C. (In general: Dilution methods test growth across graded concentrations, often in twofold steps.)
Data set [1] relates to Enterococcus faecium (ATCC 19634). The description is as above. It is filed as cell-based. Particulars: 24 h, 37° C., read-out: Minimum Inhibitory Concentration E. faceium.
The next data set relates to E. coli (MTCC 443). The description is as above. The conditions noted are these: 24 h, 37° C. Type of data set: cell-based.
Another data set deals with MRSA (ATCC 33591). The data set is described as above. Type of data set: cell-based, methicillin-resistant S. aureus. The conditions noted are these: 24 h, 37° C.
The test system of data set [2] is vancomycin resistant Enterococcus faecium (VRE) (ATCC 51559). Described as above. Type of data set: cell-based. Particulars: 24 h, 37° C.
Data set [3] deals with Klebsiella pneumoniae (ATCC 700603). The description is as above. Type of data set: cell-based. Particulars: 24 h, 37° C.
In the next data set the test system is human Red Blood Cells. In words: Haemolytic activity. The conditions noted are these: human RBCs, 1 h at 37° C.

Values joined by “and” are separate entries in the source; they are usually repeats but may differ in a detail not shown here. Equal values may be shown once. Read-outs that look alike come from different tables or passages of the source.

With `CCCCCCCCCCCCCCCC(=O)N(CCCNC(=O)[C@@H]1CCCN1)CCCNC(=O)[C@@H]1CCCN1.O=C(O)C(F)(F)F.O=C(O)C(F)(F)F` [Compound 59, N,N-bis-[{3-(^LPro)amido}propyl]hexadecanamide bis(trifluoroacetate)], the MIC against S. aureus (MTCC 737) (24 h) was found to be 2.8 µM; in data set [1], 4 µM; with E. coli (MTCC 443), 4.4 µM; in data set [2], 2.7 µM. For the same compound, in the data set with MRSA (ATCC 33591), the “Minimum Inhibitory Concentration MRSA” value came out at 7.2 µM. For the same compound, the “Minimum Inhibitory Concentration K. pneumonie” value in data set [3] came to 12 µM. The HC50 in the data set on human Red Blood Cells (Table 6) is 76 µM.

On to `CCCCCCCCCCCC(=O)N(CCCNC(=O)[C@@H](N)C(C)C)CCCNC(=O)[C@@H](N)C(C)C.O=C(O)C(F)(F)F.O=C(O)C(F)(F)F` [Compound 48, N,N-bis-[{3-(Val)amido}propyl]dodecanamide bis(trifluoroacetate)], for which the MIC is 28 µM with S. aureus (MTCC 737) (24 h), 25 µM in data set [1], 18 µM with E. coli (MTCC 443) and 25 µM in data set [2]. Also, the “Minimum Inhibitory Concentration MRSA” value in the data set on MRSA (ATCC 33591) turned out to be 40 µM. Besides, the “Minimum Inhibitory Concentration K. pneumonie” value in data set [3] was found to be 58 µM. Moreover, the HC50 with human Red Blood Cells (Table 6) was determined as 264 µM.

Consider `CCCCCCCCCCCCCCCC(=O)N(CCCNC(=O)CN)CCCNC(=O)CN.O=C(O)C(F)(F)F.O=C(O)C(F)(F)F` [Compound 44, N,N-bis-[{3-(Gly)amido}propyl]hexadecanamide bis(trifluoroacetate)], for which the MIC in the data set with S. aureus (MTCC 737) (24 h) came to 6.5 µM; in data set [1], 4 µM; against E. coli (MTCC 443), 5.9 µM; in data set [2] it was 3.3 µM. The “Minimum Inhibitory Concentration MRSA” value in the data set on MRSA (ATCC 33591) stood at 10 µM. Besides, the “Minimum Inhibitory Concentration K. pneumonie” value in data set [3] is more than 365 µM. Also, the HC50 with human Red Blood Cells (Table 6) stood at 90 µM.

`CCCCCCCCCCCC(=O)N(CCCNC(=O)[C@@H](N)[C@@H](C)CC)CCCNC(=O)[C@@H](N)[C@@H](C)CC.O=C(O)C(F)(F)F.O=C(O)C(F)(F)F` [Compound 51, N,N-bis-[{3-(^LIle)amido}propyl]dodecanamide bis(trifluoroacetate)]: the MIC in the data set on S. aureus (MTCC 737) (24 h) amounted to 8 µM; in data set [1], 8 µM; with E. coli (MTCC 443), 11 µM; in data set [2], 11.3 µM. In the data set with MRSA (ATCC 33591), the “Minimum Inhibitory Concentration MRSA” value was 5.7 µM. Moreover, the “Minimum Inhibitory Concentration K. pneumonie” value in data set [3] is 28 µM. This compound registered an HC50 in the data set on human Red Blood Cells (Table 6) of 95 µM.

In the case of `NCCCC[C@H](N)C(=O)NCCCNCCCNC(=O)[C@@H](N)CCCCN.O=C(O)C(F)(F)F.O=C(O)C(F)(F)F.O=C(O)C(F)(F)F` [Compound 23, N^1-^LLys-N^3-[{3-(^LLys)amino}propyl]propane-1,3-diamine tris(trifluoroacetate)], the MIC (against S. aureus (MTCC 737) (24 h); in data set [1]; against E. coli (MTCC 443); in data set [2]) was more than 250 µM each time. For the same compound, the “Minimum Inhibitory Concentration MRSA” value with MRSA (ATCC 33591) was more than 250 µM. Besides, in data set [3], the “Minimum Inhibitory Concentration K. pneumonie” value was more than 250 µM.

As for `N[C@@H](Cc1ccccc1)C(=O)NCCCNCCCNC(=O)[C@@H](N)Cc1ccccc1.O=C(O)C(F)(F)F.O=C(O)C(F)(F)F.O=C(O)C(F)(F)F` [Compound 22, N^1-^LPhe-N^3-[{3-(^LPhe)amino}propyl]propane-1,3-diamine tris(trifluoroacetate)], the MIC (in the data set on S. aureus (MTCC 737) (24 h); in data set [1]; in the data set on E. coli (MTCC 443); in data set [2]) was more than 250 µM in each case. In the data set with MRSA (ATCC 33591), the “Minimum Inhibitory Concentration MRSA” value is more than 250 µM. Besides, the “Minimum Inhibitory Concentration K. pneumonie” value in data set [3] was more than 250 µM.

As for `CCCCCCCCCCCCCCCC(=O)N(CCCNC(=O)[C@@H](N)CCCCN)CCCNC(=O)[C@@H](N)CCCCN.O=C(O)C(F)(F)F.O=C(O)C(F)(F)F` [Compound 12, N,N-bis-[{3-(^LLys)amino}propyl]hexadecanamide bis(trifluoroacetate)], the MIC in data set [1] came to 1.1 µM; against E. coli (MTCC 443), 5.4 µM; in data set [2], 1 µM. The “Minimum Inhibitory Concentration MRSA” value in the data set on MRSA (ATCC 33591) came out at 4.8 µM. The “Minimum Inhibitory Concentration K. pneumonie” value in data set [3] was determined as 6.5 µM. The HC50 in the data set on human Red Blood Cells (Table 3) was found to be 264.

Take `CCCCCCCCCCCCCCCC(=O)N(CCCNC(=O)[C@H](N)CCCCN)CCCNC(=O)[C@H](N)CCCCN.O=C(O)C(F)(F)F.O=C(O)C(F)(F)F` [Compound 17, N,N-bis-[{3-(^DLys)amino}propyl]hexadecanamide bis(trifluoroacetate)]: the MIC is 3.9 µM against S. aureus (MTCC 737) (24 h), 2.7 µM in data set [1], 4.8 µM against E. coli (MTCC 443) and 2.2 µM in data set [2].

As to `N[C@@H](Cc1ccccc1)C(=O)NCCCN(CCCNC(=O)[C@@H](N)Cc1ccccc1)C(=O)Cc1cccc2ccccc12` [Compound 21, N,N-bis-[{3-(^LPhe)amino}propyl]α-naphthylacetamide bis(trifluoroacetate)], the MIC against S. aureus (MTCC 737) (Staphylococcus aureus, MTCC737, 24 h) was more than 304 µM; in data set [1] (Enterococcus faecium, ATCC19634, 24 h) it was more than 304 µM; against E. coli (MTCC 443) (Escherichia coli, MTCC443) it was more than 304 µM; in data set [2] it was more than 304 µM.

For `CCCCCCCCCCCCCCCC(=O)N(CCCNC(=O)[C@@H](N)Cc1c[nH]c2ccccc12)CCCNC(=O)[C@@H](N)Cc1c[nH]c2ccccc12.O=C(O)C(F)(F)F.O=C(O)C(F)(F)F` [Compound 8, N,N-bis-[{3-(^LTrp)amino}propyl]hexadecanamide bis(trifluoroacetate)], the MIC in the data set on S. aureus (MTCC 737) (24 h) was 6.5 µM; in data set [1] it was 5.4 µM; with E. coli (MTCC 443), more than 257 µM; in data set [2], 7 µM.

For the compound “N^1-octyl-N^3-(Boc-^LAla)-N^1-[3-{(Boc-^LAla)amino}propyl]propane-1,3-diamine tris(trifluoroacetate) [Compound 19]”, the figures for the MIC in the data set on S. aureus (MTCC 737) (24 h) and with E. coli (MTCC 443) were 313 µM and 343 µM, respectively.

With “N^1-octyl-N^3-(Boc-^LLys)-N^1-[3-{(Boc-^LLys)amino}propyl]propane-1,3-diamine tris(trifluoroacetate) [Compound 20]”, the figures for the MIC against S. aureus (MTCC 737) (24 h) and against E. coli (MTCC 443) were 86 µM and 133 µM, respectively.

Consider `CCCCCCCCCCCCCC(=O)N(CCCNC(=O)[C@@H](N)Cc1c[nH]c2ccccc12)CCCNC(=O)[C@@H](N)Cc1c[nH]c2ccccc12.O=C(O)C(F)(F)F.O=C(O)C(F)(F)F` [Compound 7, N,N-bis-[{3-(^LTrp)amino}propyl]tetradecanamide bis(trifluoroacetate)], for which the MIC against S. aureus (MTCC 737) (24 h) was 2.5 µM; in data set [1], 2.5 µM; in the data set on E. coli (MTCC 443), 39 µM; in data set [2], 2.7 µM.

As for `CCCCCCCCCCCCCCCC(=O)N(CCCNC(=O)[C@@H](N)[C@@H](C)CC)CCCNC(=O)[C@@H](N)[C@@H](C)CC.O=C(O)C(F)(F)F.O=C(O)C(F)(F)F` [Compound 53, N,N-bis-[{3-(^LIle)amido}propyl]hexadecanamide bis(trifluoroacetate)], the MIC against S. aureus (MTCC 737) (24 h) is 4 µM; in data set [1], 3 µM; in the data set on E. coli (MTCC 443) it was 26 µM; in data set [2], 4.2 µM and 2.6 µM. Also, in the data set with MRSA (ATCC 33591), the “Minimum Inhibitory Concentration MRSA” value was 2.6 µM and 2.7 µM. In the data set with human Red Blood Cells (Table 6), this compound displayed an HC50 of 60 µM.

As for `CCCCCCCCCCCCCCCCCC(=O)N(CCCNC(=O)[C@@H](N)CCCCN)CCCNC(=O)[C@@H](N)CCCCN.O=C(O)C(F)(F)F.O=C(O)C(F)(F)F` [Compound 13, N,N-bis-[{3-(^LLys)amino}propyl]octadecanamide bis(trifluoroacetate)], the results for the MIC (in the data set on S. aureus (MTCC 737) (24 h); in the data set with E. coli (MTCC 443); in data set [2]) were 7.7 µM, 8.4 µM and 2.2 µM, respectively. The “Minimum Inhibitory Concentration MRSA” value in the data set with MRSA (ATCC 33591) was 14 µM. Further, the “Minimum Inhibitory Concentration K. pneumonie” value in data set [3] is 7.5 µM. Also, in the data set with human Red Blood Cells (Table 3), the HC50 is recorded as 108.

For `CCCCCCCCCCCCCC(=O)N(CCCNC(=O)[C@@H](N)CCCN)CCCNC(=O)[C@@H](N)CCCN.O=C(O)C(F)(F)F.O=C(O)C(F)(F)F` [Compound 14, N,N-bis-[{3-(^LOrn)amino}propyl]tetradecanamide bis(trifluoroacetate)], the MIC with S. aureus (MTCC 737) (24 h) turned out to be 7.9 µM; in data set [1], 5.2 µM; against E. coli (MTCC 443), 6.6 µM; in data set [2] it was 5.3 µM.

`CCCCCCCCCCCCCC(=O)N(CCCNC(=O)[C@@H](N)CC(C)C)CCCNC(=O)[C@@H](N)CC(C)C.O=C(O)C(F)(F)F.O=C(O)C(F)(F)F` [Compound 55, N,N-bis-[{3-(^LLeu)amido}propyl]tetradecanamide bis(trifluoroacetate)]: the figures for the MIC (with S. aureus (MTCC 737) (24 h); in data set [1]; against E. coli (MTCC 443)) were 3.6 µM, 4.2 µM and 5.4 µM, respectively. In the data set on human Red Blood Cells (Table 6), this compound showed an HC50 of 118 µM.

Regarding `CCCCCCCCCCCCCCCC(=O)N(CCCNC(=O)[C@@H](N)CCCN)CCCNC(=O)[C@@H](N)CCCN.O=C(O)C(F)(F)F.O=C(O)C(F)(F)F` [Compound 15, N,N-bis-[{3-(^LOrn)amino}propyl]hexadecanamide bis(trifluoroacetate)], the MIC in the data set with S. aureus (MTCC 737) (24 h) worked out at 6.4 µM; in data set [1] it was 3.2 µM; against E. coli (MTCC 443), 5.2 µM; in data set [2], 3 µM.

In the case of “N^1-octyl-N^3-(Boc-^LPhe)-N^1-[3-{(Boc-^LPhe)amino}propyl]propane-1,3-diamine tris(trifluoroacetate) [Compound 18]”, the results for the MIC in the data set on S. aureus (MTCC 737) (24 h) and against E. coli (MTCC 443) were 38 µM and 68 µM, respectively.
